Laboratory results: patent US12103915B2, “TEAD inhibitors and methods of uses thereof” (Insilico Medicine IP Limited, priority 2022, dated 2024)

Experiments:
TEAD2 = TEAD2 (Homo sapiens, UniProt Q15562); experiment: Thermal shift assay TEAD2; format: binding
Method in brief: (§1)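 Protein melt reactions contained TEAD1 (0.2 mg/ml final) or TEAD2 (0.08 mg/ml final) plus compound at 1 or 10 μM in 0.1% DMSO. Thermal unfolding was followed by dye fluorescence on a qPCR instrument.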

TEAD1 = TEAD1 (Homo sapiens, UniProt P28347); experiment: Thermal shift assay TEAD1; format: binding
TEAD1, sequence (P28347 whole entry, species assumed): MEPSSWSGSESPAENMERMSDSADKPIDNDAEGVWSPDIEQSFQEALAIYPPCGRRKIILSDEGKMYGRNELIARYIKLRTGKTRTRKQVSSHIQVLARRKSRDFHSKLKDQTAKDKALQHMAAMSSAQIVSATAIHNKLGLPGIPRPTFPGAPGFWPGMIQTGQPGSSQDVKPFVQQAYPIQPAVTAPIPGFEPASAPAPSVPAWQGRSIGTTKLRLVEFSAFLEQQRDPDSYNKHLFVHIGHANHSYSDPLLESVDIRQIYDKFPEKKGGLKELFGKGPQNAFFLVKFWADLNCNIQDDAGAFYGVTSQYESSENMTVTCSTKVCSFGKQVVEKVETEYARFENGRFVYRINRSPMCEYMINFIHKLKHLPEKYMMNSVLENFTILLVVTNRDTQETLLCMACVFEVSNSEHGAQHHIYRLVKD
Method in brief: as §1

[1] = Pharmacokinetic profile evaluation in mice; format: in vivo, CD-1 mice; conditions: CD-1; mouse, oral administration at 10 mg/kg, plasma
Description: Example C: Pharmacokinetic Profile Evaluation
Three CD-1 mice of SPF. (Sino-British SIPPR/BK Lab Animal Ltd, Shanghai.) were intravenously administrated with given compounds (Formulation: 5% DMSO+10% Solutol+85% Saline) or orally gavage administrated with given compounds (Formulation: 5% DMSO+10% Solutol+85% Saline). The blood samples were taken via cephalic vein at timepoints 0.083 h, 0.25 h, 0.5 h, 1 h, 2 h, 4 h, 8 h, and 24 h after intravenous (iv) administration or at timepoints 0.25 h, 0.5 h, 1 h, 2 h, 4 h, 6 h, 8 h, and 24 h after oral gavage administration, 30 μL/time point. Blood samples were placed in tubes containing K2-EDTA and stored on ice until centrifuged. The blood samples were centrifuged at 6800 g for 6 minutes at 2-8° C. within 1 h after collected and stored frozen at approximately −80° C. An aliquot of 20 μL plasma samples were protein precipitated with 400 μL MeOH in which contains 100 ng/mL Verapamil (IS). The mixture was vortexed for 1 min and centrifuged at 18000 g for 10 min. Transfer 400 μL supernatant to 96 well plates. An aliquot of 5 μL supernatant was injected for LC-MS/MS analysis by LC-MS/MS-27 (TQ6500+) instrument. The analytical results were confirmed using quality control samples for intra-assay variation. The accuracy of >66.7% of the quality control samples should be between 80-120% of the known value(s). Standard set of parameters including Area Under the Curve (AUC(0-t)), maximum plasma concentration (Cmax), elimination half-life (T1/2) will be calculated using noncompartmental analysis modules in FDA certified pharmacokinetic program Phoenix WinNonlin 7.0 (Pharsight, USA).

TEAD3 = TEAD3 (Homo sapiens, UniProt Q99594); experiment: Thermal shift assay TEAD3; format: binding
TEAD3, sequence (Q99594 whole entry, species assumed): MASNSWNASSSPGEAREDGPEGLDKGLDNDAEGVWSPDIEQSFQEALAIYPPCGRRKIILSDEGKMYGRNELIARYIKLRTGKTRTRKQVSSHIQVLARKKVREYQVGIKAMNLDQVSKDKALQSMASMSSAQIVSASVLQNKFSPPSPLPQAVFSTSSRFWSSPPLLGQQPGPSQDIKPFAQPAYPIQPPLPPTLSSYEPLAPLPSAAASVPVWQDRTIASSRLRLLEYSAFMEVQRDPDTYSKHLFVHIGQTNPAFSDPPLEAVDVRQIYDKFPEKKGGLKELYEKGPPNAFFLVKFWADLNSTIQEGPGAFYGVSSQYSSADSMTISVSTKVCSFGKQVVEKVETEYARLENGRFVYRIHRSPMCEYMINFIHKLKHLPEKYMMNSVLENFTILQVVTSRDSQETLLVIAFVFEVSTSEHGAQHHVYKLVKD
Method in brief: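 Compounds at 1 or 10 μM (0.1% DMSO, PBS dilution) mixed with 0.1 mg/ml final TEAD3 and thermal shift dye, then run through a qPCR melt to follow protein unfolding.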

NCI-H226 cells = experiment: Cell growth assay (CellTiter-Glo); format: cell-based, human; conditions: Homo sapiens, NCI-H226, 168 h, 7 days treatment, CellTiter-Glo luminescence, read-out: H226 CTG IC50
TEAD4 = TEAD4 (Homo sapiens, UniProt Q15561); experiment: Thermal shift assay TEAD4; format: binding
TEAD4, sequence (Q15561 whole entry, species assumed): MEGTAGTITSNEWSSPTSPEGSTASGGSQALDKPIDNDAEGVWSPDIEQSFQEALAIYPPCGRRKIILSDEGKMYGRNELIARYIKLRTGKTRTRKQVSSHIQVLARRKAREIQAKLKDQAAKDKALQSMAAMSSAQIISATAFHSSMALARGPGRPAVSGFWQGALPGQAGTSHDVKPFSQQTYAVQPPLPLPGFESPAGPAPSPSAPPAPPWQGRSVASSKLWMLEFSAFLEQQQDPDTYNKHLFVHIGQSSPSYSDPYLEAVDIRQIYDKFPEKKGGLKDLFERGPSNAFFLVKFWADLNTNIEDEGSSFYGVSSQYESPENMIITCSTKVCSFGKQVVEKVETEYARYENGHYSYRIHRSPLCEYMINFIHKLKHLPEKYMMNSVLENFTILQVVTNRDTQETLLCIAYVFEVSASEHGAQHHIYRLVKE
Method in brief: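 Compounds tested at 1 and 10 μM (0.1% DMSO, PBS) against TEAD4 protein at 0.1 mg/ml final. Melting followed by thermal shift dye fluorescence during a qPCR instrument ramp.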

TEAD2, sequence (Q15562 whole entry, species assumed): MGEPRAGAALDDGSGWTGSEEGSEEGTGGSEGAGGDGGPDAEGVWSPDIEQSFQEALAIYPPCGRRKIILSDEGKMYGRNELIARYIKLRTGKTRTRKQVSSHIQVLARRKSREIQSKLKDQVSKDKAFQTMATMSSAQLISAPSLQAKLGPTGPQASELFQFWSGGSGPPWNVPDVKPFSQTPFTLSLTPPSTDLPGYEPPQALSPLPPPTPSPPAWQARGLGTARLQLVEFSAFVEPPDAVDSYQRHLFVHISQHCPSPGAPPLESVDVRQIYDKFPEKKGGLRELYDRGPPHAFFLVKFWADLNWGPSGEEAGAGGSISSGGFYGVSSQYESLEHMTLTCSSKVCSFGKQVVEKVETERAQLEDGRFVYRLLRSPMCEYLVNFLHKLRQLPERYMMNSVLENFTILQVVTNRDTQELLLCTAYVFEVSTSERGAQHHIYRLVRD

Row | Compound | TEAD2 ΔTm (TEAD2) [°C] | TEAD1 ΔTm (TEAD1) [°C] | AUC(0-t) [1] [ng·h/mL] | Cmax [1] [ng/mL] | half-life [1] [h] | TEAD3 ΔTm (TEAD3) [°C] | IC50 (NCI-H226 cells) [nM] | TEAD4 ΔTm (TEAD4) [°C]
1 | Cn1cc2cc(-c3ccc(C(F)(F)F)cc3)cc(C3C[C@H]3C(=O)O)c2n1 (mixture of isomers) [Example 2] | 7 | 8.1 | 104000 | 9750 | 5.4 | 2.7 | < 100 | 11.4
2 | Cn1cc2cc(Oc3ccc(C(F)(F)F)cc3)cc(C3C[C@H]3C(=O)O)c2n1 (mixture of isomers) [Example 16] | 12.7 | 11.6 | 676000 | 40100 | 26.4 | 13.1 | 100 to 500 | 11.8
3 | O=C(O)[C@@H]1CC1c1cc(Oc2ccc(C(F)(F)F)cc2)cc2cccnc12 (mixture of isomers) [Example 17] | 14.2 | 9.2 | 497000 | 33700 | 26 | 11.7 | 100 to 500 | 10.1
4 | Cn1ncc2c(C3C[C@H]3C(=O)O)cc(Oc3ccc(C(F)(F)F)cc3)cc21 (mixture of isomers) [Example 18] | 14 | 8.8 | 617000 | 41200 | 11.2 | 7.4 | 100 to 500 | 9.1
5 | CNC(=O)[C@@H]1CC1c1cc(-c2ccc(C(F)(F)F)cc2)cc2c1cnn2C (mixture of isomers) [Example 24] | 4.5 | 2.4 | 70000 | 5530 | 5.2 | 0.3 | 100 to 500 | 2.4
6 | Cn1cc2cc(Oc3ccc(C(F)(F)F)c(F)c3)cc([C@@H]3C[C@H]3C(=O)N3C[C@@H]4C[C@H]3C[C@@H]4O)c2n1 (single isomer, unassigned) [Example 140] | 11.1 | 7.6 | – | – | – | 8.9 | < 100 | 10.6
7 | CN(C)C(=O)[C@@H]1C[C@H]1c1cc(Oc2ccc(C(F)(F)F)c(F)c2)cc2cn(C)nc12 (single isomer, unassigned) [Example 141] | 16.2 | 9.3 | – | – | – | 11.4 | < 100 | 12.0
8 | CNS(=O)(=O)CCc1cc(-c2ccc(C(F)(F)F)cc2)cc2c1cnn2C [Example 42] | 4.1 | 7.3 | – | – | – | 3.5 | < 100 | 3.8
9 | CNS(=O)(=O)CCc1cc(Oc2ccc(C(F)(F)F)cc2)cc2cn(C)nc12 [Example 45] | 10.3 | 9.3 | 11500 | 3100 | 2.2 | 4 | 100 to 500 | 10.6
10 | CC(=O)NS(=O)(=O)CCc1cc(-c2ccc(C(F)(F)F)cc2)cc2cn(C)nc12 [Example 46] | 10.9 | 10.4 | – | – | – | 7.2 | 1000 to 30000 | 11.2
11 | CNS(=O)(=O)CCCc1cc(-c2ccc(C(F)(F)F)cc2)cc2cn(C)nc12 [Example 47] | 1.9 | 4.7 | – | – | – | −0.8 | 1000 to 30000 | 5.7
12 | CNS(=O)(=O)CCc1cc(Oc2ccc(C(F)(F)F)cc2)cc2cccnc12 [Example 142] | 11.4 | 8.9 | – | – | – | 10.2 | 100 to 500 | 9.7

The next lines start with the values.

Row | TEAD2 ΔTm (TEAD2) [°C] | TEAD1 ΔTm (TEAD1) [°C] | AUC(0-t) [1] [ng·h/mL] | Cmax [1] [ng/mL] | half-life [1] [h] | TEAD3 ΔTm (TEAD3) [°C] | IC50 (NCI-H226 cells) [nM] | TEAD4 ΔTm (TEAD4) [°C] | Compound
13 | 14.2 | 10.2 | 31800 | 3180 | 2.2 | 10.9 | < 100 | 11.3 | CNC(=O)[C@H]1C[C@@H]1c1cc(Oc2ccc(C(F)(F)F)cc2)cc2cn(C)nc12 (single isomer, unassigned) [Example 34b]
14 | 9.8 | 8.2 | 51600 | 4120 | 4.8 | 9.2 | < 100 | 11.1 | Cn1cc2cc(Oc3ccc(C(F)(F)F)cc3)cc(C3C[C@H]3C(=O)N3C[C@@H]4C[C@H]3C[C@@H]4O)c2n1 (single isomer, unassigned) [Example 103f]
15 | 2.7 | 1.9 | – | – | – | 0.2 | 100 to 500 | 0.7 | CNC(=O)[C@@H]1CC1c1cc(-c2ccc(C(F)(F)F)cc2)cc2c1cnn2C (some centres unmarked) [Example 40]
16 | 1.2 | 2.1 | – | – | – | 0.7 | < 100 | 1.4 | CNS(=O)(=O)/C=C/c1cc(-c2ccc(C(F)(F)F)cc2)cc2c1cnn2C [Example 41]
17 | 7.6 | 9.1 | 16100 | 2470 | 2.6 | 3.0 | < 100 | 10 | CNS(=O)(=O)CCc1cc(-c2ccc(C(F)(F)F)cc2)cc2cn(C)nc12 [Example 44]
18 | 9.4 | 6.3 | – | – | – | 1.9 | 1000 to 30000 | 8.4 | CNS(=O)(=O)CCc1cc(N2CCC3(CCCC3)CC2)cc2cn(C)nc12 [Example 48]
19 | 13.2 | 9.6 | – | – | – | 10.3 | < 100 | 8.8 | CNS(=O)(=O)CCc1cc(Oc2ccc(C(F)(F)F)cc2)cc2c1NCCC2 [Example 143]
